# Results: patent US8894989B2, “PARP inhibitor compounds, compositions and methods of use” (Eisai Inc., priority 2007, dated 2014)
# “Also recorded” adds a separate entry of the source. Like-named read-outs stand apart in the source and are kept apart here.
# Key:
# [1] = Bioavailability and brain/plasma levels in mice; settings: 30 mg/kg; for Kp / bioavailability: mouse; for Kp: brain; for bioavailability: plasma, po
# [2] = Bioavailability and brain/plasma levels in rats; settings: 30 mg/kg; for Kp / bioavailability: rat; for Kp: brain; for bioavailability: plasma, po
# [3] = test system: SJGBM2 glioma; settings: for efficacy (survival): compound 13 10 mg/kg po + TMZ
# [4] = test system: B16 melanoma; test: Mouse intracranial model of B16 melanoma, combination with TMZ; type: in vivo, mice; settings: for survival time: compound 13 10 mg/kg oral + TMZ vs TMZ as single agent (P<0.0001)
# [5] = test system: Human HNSCC cell line JHU012; test: Enhancement of radiation treatment of head and neck squamous cell carcinoma xenograft; type: in vivo, BALB/c nude mice
# Experimental: Human HNSCC cell line JHU012 was used, having been previously genetically characterized and originally derived at the Johns Hopkins University Head and Neck Laboratories from human tumor explants. The cell line was maintained in RPMI 1640 medium with 10% fetal bovine serum and 1% penicillin/streptomycin at 5% CO2 in 37° C. humidified incubators. Experiments were performed on 6-week-old male BALB/c nude mice nu/nu. […] Mice were anesthetized by intraperitoneal injection of […] tribromoethanol. Tumors were established at the right flank by subcutaneous injection of 1×10^7 cells. Fourteen days post cell injection tumors were surgically exposed and measured in 3 dimensions using calipers.
# [6] = test system: BRCA-1 null cells; test: Tumor growth in mice bearing BRCA-1 deficient tumors; type: in vivo, nu/nu mice
# Experimental: 1×10^6 BRCA-1 null cells were injected subcutaneously on the right flank of female nu/nu mice (6-7 weeks old; Harlan Sprague Dawley, Indianapolis Ind.). After approximately 10-14 days, the tumors were approximately 100 mm^3. Mice were sorted into groups so that mean tumor size was similar among groups with minimum standard deviations. Dosing started the day after sorting and tumor volume was monitored three times per week. Tumors were measured in two diameters and volume calculated by […]. Mice were removed from the study when tumors reached 1500 mm^3. “Time to Endpoint” or TTE (the number of days it takes for the tumor to reach 1500 mm^3 or greater) is the endpoint of the study. […] The compound was dosed orally, daily for 28 days from start of the study—day 1. A positive control was utilized, using a well known PARP inhibitor shown to be effective as a stand alone agent in the BRCA models (Bryant et al). The positive control agent was dosed at 25 mg/kg IP qdx5 from start of experiment.
# [7] = in vivo; settings: mouse, po, 30 mg/kg
# [8] = in vivo; settings: rat, po, 30 mg/kg
# [9] = Plasma and tissue pharmacokinetic properties in mice, rats, and dogs (general statements); type: in vivo; settings: in words
# Experimental: AUC was calculated using the Linear/Log rule.
# Selective PARP inhibitors were tested for basic plasma and tissue pharmacokinetic properties in mice, rats, and dogs. After assessment, this family compounds appear to be orally bioavailable in all species and to penetrate brain and tumor tissue.
compound,measurement,setting,value
O=c1[nH]nc2c3c(cccc13)N=C(CN1CCN(c3ccccc3)CC1)N2,Kp,[1],0.49
same,bioavailability,[1],49%
same,Kp,[2],0.4
same,bioavailability,[2],58%
O=c1[nH]nc2c3c(cccc13)N=C(CN1CCC(c3ccccc3)CC1)N2,B/P in mice (ratio of brain to plasma levels),[1]; mice,30-64%
same,bioavailability,[1],75%
same,bioavailability,[2],50%
same,B/P in rats (ratio of brain to plasma levels),[2]; rats,71-117%
"O=c1[nH]nc2c3c(cccc13)N=C(CN1CC=C(c3ccccc3)CC1)N2 [Compound 13, 8-(4-phenyl-3,6-dihydro-2H-pyridin-1-ylmethyl)-2,9-dihydro-1,2,7,9-tetraaza-phenalen-3-one]",MTS (median survival time),"[3]; compound 13 10 mg/kg po 15 min pre-TMZ, combination with TMZ (P=0.002)",25 days
same,efficacy (survival),[3],enhanced survival
same,efficacy (survival),[3]; listed as compound 13,efficacious
same,survival time,[4],enhance survival
same,survival time,[4]; listed as compound 13,significantly increased the survival time
"O=c1[nH]nc2c3c(cccc13)N=C(CN1Cc3ccccc3C1)N2 [Compound 37, 8-(1,3-dihydro-isoindol-2-ylmethyl)-2,9-dihydro-1,2,7,9-tetraaza-phenalen-3-one]",tumor growth inhibition,[5]; 100 mg/kg Compound 37 PO qdx17 alone compared to vehicle controls,no significant effect on tumor growth inhibition
same,tumor growth inhibition,[5]; Compound 37 30 mg/kg PO + radiation compared to radiation alone,no significant effect on tumor growth inhibition
same,inhibition of tumor growth,[5]; Compound 37 oral (100 mg/kg) + radiation vs control,significant inhibition of tumor growth
same,tumor volume at end of experiment,"[5]; Group 5: 100 mg/kg Compound 37 PO + Radiation (2 gy/day for 2 days), day 31, control 585.9 mm^3, p<0.01",209.04 mm^3
same,animal survival,[3]; 10 mg/kg Compound 37 + TMZ five days followed by Compound 37 100 mg/kg for 14 days vs 10 mg/kg Compound 37 + TMZ five days,significantly increased animal survival
same,tumor growth,"[6]; 100 mg/kg Compound 37 orally, daily for 28 days, vs vehicle controls",effective in significantly retarding tumor growth; also recorded: inhibition of growth
same,time until tumors start to grow after dosing stopped at day 28,[6]; Compound 37 100 mg/kg po daily for 28 days,10 to 14 days
same,tumor growth delay compared to positive control,[6]; Compound 37 100 mg/kg po vs positive control PARP inhibitor 25 mg/kg IP qdx5 (p<0.05),delayed tumor growth compared to the positive control
same,mean survival time,[4]; Compound 37 12.5 mg/kg oral + TMZ vs TMZ as single agent,significantly higher; also recorded: enhance survival
"Cn1nnc2c(C(N)=O)ncn2c1=O [TMZ, temozolomide, reference compound]",MTS (median survival time),[3]; TMZ alone,22.5 days
same,response of SJGBM2 to TMZ,[3]; TMZ as single agent,ineffective
same,survival times,[4]; TMZ treated vs control group,No significant differences in survival times
O=c1[nH]nc2c3c(cccc13)N=C(CN1CCOCC1)N2 [drawing 95],Kp,[1],< 0.05
same,bioavailability,[1],77%
same,Kp,[2],< 0.05
same,bioavailability,[2],77%
O=c1[nH]nc2c3c(cccc13)N=C(CN1CC=C(c3ccccc3)CC1)N2 [drawing 97],Kp,[1],0.46
same,Kp,[2],0.42
same,bioavailability,[7],61%
same,bioavailability,[8],51%
O=c1[nH]nc2c3c(cccc13)N=C(CN1Cc3ccccc3C1)N2 [drawing 99],Kp,[1],0.26
same,bioavailability,[1],81%
same,Kp,[2],0.36
same,bioavailability,[2],45%
O=c1[nH]nc2c3c(cccc13)N=C(CN1CCOCC1)N2 [prior art compound],oral bioavailability,[9],good bioavailability
same,ratio of brain to plasma levels,[9],very low
